In US12221425B2, “Process for the preparation of CIC-1 chloride channel inhibitors” (NMD PHARMA A/S, priority 2019, dated 2025):

Molecular target: T1, human CIC-1 channels (Homo sapiens, UniProt P35523)
T1 construct: host or cells: CHO (Chinese hamster ovary) cells constitutively expressing human ClC-1
Assay: Automated whole cell patch clamp (Qpatch 16) on CHO cells expressing human CIC-1, compound added intracellularly
Format: cell-based
Conditions: compound in intracellular solution vs vehicle control patches, positive shift reflects CIC-1 inhibition
Description: The investigatory goal of these experiments was to evaluate how compounds affect the open probability and current amplitude of human CIC-1 channels expressed in CHO cells. Experiments were performed using an automated patch clamp system that allowed high throughput testing of whole cell patches together with both intracellular and extracellular addition of compound.
Automated whole cell patch clamp experiments were performed with the Qpatch 16 system (Sophion Bioscience, Ballerup, Denmark) at room temperature. Data acquisition and analysis were performed in the Qassay software (ver. 5.6, Odense).
To evoke CIC-1 currents in whole cell patches, the membrane potential was initially stepped from a holding potential of −30 mV to +60 mV for 100 ms and then to various test voltages (sweeps) ranging from +120 mV to −140 mV in steps of 20 mV for 300 ms. To obtain tail currents, the membrane potential was stepped to −100 mV after each test voltage for 300 ms and then relaxed to −30 mV for 2 sec between sweeps (FIG. 1). I/V relationships for whole cell instant and steady state current amplitudes were obtained by plotting average current densities at the beginning and at the end of the 300 ms step against the membrane potential (FIG. 2).
In order to determine the relative overall open probability (P0), the instantaneous tail currents were normalized to the maximal tail current obtained following the most positive voltage step and plotted against the test voltage. Plots of normalized tail currents from each whole cell patch were then fitted to a Boltzmann function allowing determination of half activation voltages (V1/2, FIG. 3).
For automated patch clamp experiments extracellular solutions contained: 2 mM CaCl2, 1 mM MgCl2, 10 mM HEPES, 4 mM KCl, 145 mM NaCl, 10 mM Glucose, pH adjusted to 7.4 with NaOH (2 M). Osmolality adjusted to ˜320 using sucrose.
Intracellular solutions contained: 80 mM CsF, 60 mM CsCl, 5/1 mM KOH/EGTA, 10 mM HEPES, 10 mM NaCl, pH adjusted to 7.2 with NaOH (2 M). Osmolality adjusted to ˜320 mOsm using sucrose.
Cells used in patch clamp experiments were Chinese hamster ovary cells (CHO) constitutively expressing human CIC-1 channels. The amino acid sequence encoded by the cDNA used to create this cell line was identical to the translated sequence for GenBank accession number NM_000083.2. Cells were produced by Charles River (Catalogue CT6175, Cleveland OH, USA) in a cryopreserved format. Experiments were performed on the cells directly after thawing (3×10^6 cells used in each experiment).
To evaluate the compound effect on CIC-1, when applied directly to the intracellular side of the cell membrane, the half activation voltage, V1/2, was determined from whole cell patches with compound added to the intracellular solution and then compared to V1/2 determined from control cell patches with only vehicle added to the intracellular solution. Additionally, the effect of extracellular added compound was evaluated by determine V1/2 and steady state current amplitudes before and after exchanging the extracellular solution to contain compound.
The difference in half activation voltage of CIC-1 channels, ΔV1/2, was determined as the difference between the cell patches treated intracellularly with compound and control cells patches and is reported in Table 1 below. A positive shift in ΔV1/2 is reflecting CIC-1 channel inhibition by the tested compound. P-values of <0.05 is considered significant.

T1 sequence (P35523 whole entry): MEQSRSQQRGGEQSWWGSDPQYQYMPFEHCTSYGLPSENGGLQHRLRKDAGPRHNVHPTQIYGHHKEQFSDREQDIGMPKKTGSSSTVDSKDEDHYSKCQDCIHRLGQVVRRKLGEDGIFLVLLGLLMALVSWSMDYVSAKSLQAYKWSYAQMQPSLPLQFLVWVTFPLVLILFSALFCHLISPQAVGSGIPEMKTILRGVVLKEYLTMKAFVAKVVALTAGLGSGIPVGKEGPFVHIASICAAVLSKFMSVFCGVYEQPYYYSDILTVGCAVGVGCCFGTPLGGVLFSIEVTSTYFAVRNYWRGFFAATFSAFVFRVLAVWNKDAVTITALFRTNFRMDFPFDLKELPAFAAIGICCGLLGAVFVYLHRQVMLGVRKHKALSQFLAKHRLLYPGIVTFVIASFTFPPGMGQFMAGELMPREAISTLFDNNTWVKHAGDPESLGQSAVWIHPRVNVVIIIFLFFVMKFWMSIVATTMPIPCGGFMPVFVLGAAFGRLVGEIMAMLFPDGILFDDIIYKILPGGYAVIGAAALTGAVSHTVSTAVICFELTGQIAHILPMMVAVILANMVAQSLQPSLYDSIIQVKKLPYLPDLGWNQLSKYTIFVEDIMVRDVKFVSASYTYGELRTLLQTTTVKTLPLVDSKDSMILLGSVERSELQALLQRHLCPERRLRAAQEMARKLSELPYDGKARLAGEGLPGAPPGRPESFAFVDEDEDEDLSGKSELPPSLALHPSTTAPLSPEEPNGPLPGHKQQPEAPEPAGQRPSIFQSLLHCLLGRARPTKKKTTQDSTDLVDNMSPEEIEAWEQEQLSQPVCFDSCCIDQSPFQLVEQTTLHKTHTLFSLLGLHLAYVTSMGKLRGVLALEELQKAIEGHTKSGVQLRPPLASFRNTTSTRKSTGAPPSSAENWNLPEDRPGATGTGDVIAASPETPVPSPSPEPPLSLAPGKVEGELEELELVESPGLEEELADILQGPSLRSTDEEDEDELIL

Structure (SMILES) | Shift in half activation voltage, ΔV1/2 [mV]
O=C(O)COc1ccc(Br)cc1-c1ccon1 [2-[4-bromo-2-(1,2-oxazol-3-yl)phenoxy]acetic acid] | 11.3
C[C@H](Oc1ccc(Br)cc1-c1ccon1)C(=O)O [(2S)-2-(4-bromo-2-(isoxazol-3-yl)phenoxy)propanoic acid] | 14.1
CC[C@H](Oc1ccc(Br)cc1-c1ccon1)C(=O)O [(2S)-2-[4-bromo-2-(1,2-oxazol-3-yl)phenoxy]butanoic acid] | 7.2
C[C@H](Oc1cc(F)c(Br)cc1-c1ccon1)C(=O)O [(2S)-2-[4-bromo-5-fluoro-2-(1,2-oxazol-3-yl)phenoxy]propanoic acid] | 17.7
C[C@H](Oc1ccc(Cl)cc1-c1ccon1)C(=O)O [(2S)-2-[4-chloro-2-(1,2-oxazol-3-yl)phenoxy]propanoic acid] | 8.1
